Here are results for 17 molecules from patent US5504244A, “Alkylarylketo acids” (Boehringer Ingelheim Pharmaceuticals, Inc., priority 1993, dated 1996).

Where two headings read alike, the source gives them in different places.

For assay [1], the system named is 5-HETE biosynthesized by glycogen-stimulated polymorphonuclear leucocytes (PMNs). Nature of the assay: Hydroxyacid Profile Assay (HPA): inhibition of 5-HETE synthesis in glycogen-elicited rabbit PMNs. Format: cell-based. As to conditions: Oryctolagus cuniculus, Leucocyte; for inhibition at 100 µM: 5-HETE synthesis, read-out: Percent Inhibition (100 μM); for IC50: read-out: IC50 (50% inhibition of 5-HETE synthesis). How it is done:
As previously noted 5-HETE biosynthesis serves as a marker for arachidonic acid metabolism via the 5-lipoxygenase pathway which produces (poly)hydroxyeicosatetraenoic acids and the potent bronchoconstrictor and vasoactive leukotrienes LTC4, LTD4 and LTE4.
Buffer A (8.70 g NaCl; 0.27 g KCl; 0.42 g Na2 HPO4; 0.76 g KH2 PO4; and 1.00 g dextrose per liter H2 O; pH 7.0) (0.325 ml) is introduced into each of a battery of screwtop culture tubes. Then, a solution of a compound (0.100 ml) to be assayed is dispensed into individual tubes. Assays are performed in duplicate at 100 μM and 10 μM concentrations. Control tubes receive Buffer A (0 100 ml) in lieu of compound. Next, rabbit PMNs (2×10^7 cells/tube; 4×10^7cells/ml) (0.500 ml) are added to each tube. The rabbit PMN's used are elicited with glycogen and made into a preparation substantially as described by F. Hirata. et al (1979) Proc. Natl. Acad. Sci. USA, 76, 2640-2643. The tubes are vortexed and preincubated in a shaking 37° C. water bath for 15 minutes.
Thereafter, the tubes are removed from the water bath and calcium ionophore solution (400 μg/ml A-23187; Sigma Chemical Co., St. Louis, Mo.) (0.025 ml), ^14 C-arachidonic acid (0.25 μCi in 0.025 ethanol; New England Nuclear Products, Boston, Mass.) (0.025 ml) and calcium chloride solution (CaCl2.2H2 O ); 105.8 mg/10 […]) (0.025 ml) are added in that order. The tubes are vortexed and returned to the water bath for 30 minutes. The reaction is then terminated by the addition of HCl (0.8N, 0.025 ml).
Extraction and concentration of ^14 C-labeled 5-HETE is performed as follows. First, solution containing 2 parts ethyl acetate, 3 parts CH2 Cl2 and 0.01 ml unlabeled arachidonic acid is added (5.01 ml) to each tube. The tubes are capped and briefly vortexed. The contents of each tube is poured into a polypropylene column fitted with a porous polyethylene disc and Whatman phase separation filter paper. The organic phase is collected by gravity filtration into a conical centrifuge tube, While the aqueous phase is retained in the column by the phase separation paper. Each culture tube is rinsed once with the EtOAc:CH2 Cl2 solution (1.0 ml) and the wash added to the column. The organic phase is concentrated to (0.5 ml) using a Savant Speed Vac concentrator (Savant Instruments, Inc., Hicksville, N.Y.).
After concentration of the organic phase, the tubes are vortexed and stored covered on ice. An aliquot (0.01 ml) is then removed for liquid scintillation counting in a Beckman LS7500 Liquid Scintillation Counter (Beckman Instruments Corp., Fullerton, Calif.). Based on the count, the number of μl containing 1×10^5 cpm is calculated. This volume is applied to a silica gel covered glass plate in a 10 mm streak. The remaining fluid in the tube is measured via syringe and noted.
The TLC plate is placed in a chromatography chamber containing the following solvent system: CHCl3 :MeOH:HOAc:H2 O (v/v;90: 9:1:0.65). The plate is then air dried and counted on a Berthold Linear TLC Analyzer (Berthold Instruments, Inc., Pittsburgh, Pa.) for 30 minutes per lane if a dose response curve had been run, or for 5 min per lane if drug screening had been done. The integrated area of the 5-HETE band for each compound is converted to percent of control and analyzed. The percent inhibition at 100 μM compound concentration and the concentration (μM) which produces a 50% inhibition of 5-HETE synthesis (IC50), are determined for those compounds described in Examples 1-36, and are reported in Table 1 .

A further assay has as its system guinea pig ileal strips. Nature of the assay: Modified Schultz-Dale Assay: inhibition of antigen-induced anaphylactic contraction of passively sensitized ileal strips. As to conditions: Cavia porcellus; for IC50: value in parentheses. The class given is cell-based. The protocol:
In the classic Schultz-Dale assay, guinea pigs are sensitized with a known immunogen or passively sensitized with guinea pig antiserum to the immunogen, strips of ilea are recovered, and the extent of their contraction in response to a challenge exposure to the same antigen is observed as a measure of anaphylactic response. The experiments described here follow this same procedure while exposing the ileal strips to test compound before exposure to antigen challenge (preincubation) and, in some strips, also after antigen challenge (postincubation).
The male Hartley strain guinea pigs (450-650 g) whose ilea are used in this Schultz-Dale assay are passively sensitized with IgE antiovalbumin antiserum as follows. The antiserum is developed in another group of similar guinea pigs as described in Graziano, et al., J. Immunol. 127:1067-1070 (1981) and pooled. The test animals are then each passively sensitized by subcutaneous injection of the pooled antiserum (1 ml).
About 2-7 days after sensitization, the guinea pigs are sacrificed and the terminal ilea are removed. They are cut into strips (6 cm) and positioned in tissue baths (5 ml) of Tyrode's solution with atropine (1 μg/ml) at 37° C. One end of each strip is fixed to an immobile post and the other movably mounted to a Grass Ft. 0.03 linear force displacement transducer and a Grass Model 7 polygraph. The tension is set (at 1 gram) and the tissue is allowed to equilibrate (10 minutes). Tissue viability is tested by establishing a consistent response to histamine (0.5 μg/ml). After several histamine-induced contractions, mepyramine (1 μg/ml) is added to inhibit any contractions due to the anaphylactic release of endogenous histamine.
A minimum of 3 animals are used for each compound tested and, of the 6 strips from each animal, 2 strips are incubated (preincubation) with a test compound (final concentration 75 μM), 2 with an appropriate reference standard (BW-755C at 75 μM) and 2 with saline solution (control) for a predetermined period (5 minutes). After this initial incubation period, ovalbumin (100 μg/ml) is added to each bath and the resulting anaphylactic contraction measured. The data are recorded as of tension produced by the tissue in excess of the 1 gram tension that was initially set. At the peak of the contraction, a dose of the same test compound (75 μM) is added (postincubation) to one control strip and reference standard (FPL-55712 at 1.9 μM). The strips are monitored (1 minute) and any effect on the established contraction is recorded as described above.
Two types of data are derived from the above protocol. First, pre-antigen inhibition (prechallenge) is expressed as the percent inhibition in each of the strips preincubated with test compound measured against the averaged contractions of the two control strips. Prechallenge inhibition by the reference standard is also determined in each experiment as a positive control. The reference used consistently gives 60-80% inhibition. Second, post-antigen inhibition (postchallenge) is determined by measuring the decrease in anaphylactic contraction of a control strip produced by adding either a test compound or standard at the peak of the contraction. The reference used consistently gives 70-90% inhibition. The data in each experiment, therefore, consists of 2 prechallenge and 1 postchallenge value for both test compound and standard.

Setting [2] is: added at peak of contraction after antigen, read-out: Postchallenge mean percent inhibition.
[3] abbreviates: preincubation before ovalbumin antigen, read-out: Prechallenge mean percent inhibition.
Where [4] appears, read: added at peak of contraction after antigen, read-out: Postchallenge IC50.
[5] abbreviates: preincubation before ovalbumin antigen, read-out: Prechallenge IC50.

What is called inhibition is the relative decrease from the control value, in per cent. The term IC50 denotes the concentration that inhibits the measured activity by half.

As for `CCCCCCCc1ccc(C(=O)[C@@H]2CCCC[C@H]2C(=O)O)cc1` (relative stereo) [Example 23, Trans-2-(4-heptylbenzoyl)cyclohexane-1-carboxylic acid], in assay [1], the inhibition at 100 µM amounted to 70%. In addition, the values for the concentration for half-maximal inhibition (IC50) (in assay [1]; in the assay on guinea pig ileal strips (setting [4]); with guinea pig ileal strips (setting [5])) were 5 µM, more than 25 µM and 14 µM, respectively. Also, the inhibition at 75 µM is 76% with guinea pig ileal strips (setting [2]) and 100% in the assay with guinea pig ileal strips (setting [3]).
Consider `CCCCCCCCCc1ccc(C(=O)[C@@H]2CCCC[C@H]2C(=O)O)cc1` (relative stereo) [Example 32, Trans-2-(4-n-nonylbenzoyl)cyclohexane-l-carboxylic acid], for which, in assay [1], the inhibition at 100 µM was 85%. In addition, the inhibition at 75 µM in the assay on guinea pig ileal strips (setting [2]) was determined as 20%; with guinea pig ileal strips (setting [3]), 92%.
`NC1=NN(c2cccc(C(F)(F)F)c2)CC1` [BW-755C, reference compound]: the inhibition at 75 µM in the assay with guinea pig ileal strips (positive control, preincubation, read-out: Prechallenge inhibition by the reference standard) is 60 to 80%.
As for `CCCCCCc1ccc(C(=O)CCCCC(=O)O)cc1` [Example 5, 5-(4-n-Hexylbenzoyl)pentanoic acid], the inhibition at 100 µM in assay [1] was 47%. Also, the inhibition at 75 µM worked out at 58% in the assay with guinea pig ileal strips (setting [2]) and 65% in the assay on guinea pig ileal strips (setting [3]).
As to `CCCCCCCCc1ccc(C(=O)CCCCC(=O)O)cc1` [Example 6, 5-(4-n-Octylbenzoyl)pentanoic acid], the inhibition at 100 µM in assay [1] came to 77%. Besides, the inhibition at 75 µM with guinea pig ileal strips (setting [2]) worked out at 0%; in the assay on guinea pig ileal strips (setting [3]), 63%.
Turning to `CCCCCCCc1ccc(C(=O)CCCCC(=O)O)cc1[N+](=O)[O-]` [Example 7, 5-(3-Nitro-4-n-heptylbenzoyl)pentanoic acid], the inhibition at 100 µM in assay [1] was determined as 84%. For the same molecule, the inhibition at 75 µM came to 28% in the assay on guinea pig ileal strips (setting [2]) and 96% in the assay with guinea pig ileal strips (setting [3]). The 50% inhibitory concentration (IC50) is more than 75 µM in the assay on guinea pig ileal strips (setting [4]) and 14 µM with guinea pig ileal strips (setting [5]).
The corresponding values for `CCCCCCCc1ccc(C(=O)CCCCC(=O)O)cc1N` [Example 8, 5-(3-Amino-4-n-heptylbenzoyl)pentanoic acid] are 47%, 48%, 94%, more than 75 µM and 37 µM.
Take `CCCCCCOc1ccccc1C(=O)CCCCC(=O)O` [Example 13, 5-(2-n-Hexyloxybenzoyl)pentanoic acid]: in assay [1], the inhibition at 100 µM was determined as 64%. Moreover, the figures for the inhibition at 75 µM in the assay on guinea pig ileal strips (setting [2]) and in the assay with guinea pig ileal strips (setting [3]) were 43% and 87%, respectively. Also, the 50% inhibitory concentration (IC50) with guinea pig ileal strips (setting [4]) was 45 µM; in the assay on guinea pig ileal strips (setting [5]), 15 µM.
With `CCCCCc1ccc(C(=O)Cc2cccc(C(=O)O)c2)cc1` [Example 15, 3-(4-pentylphenacyl)benzoic acid], in assay [1], the inhibition at 100 µM is 78%. The inhibition at 75 µM with guinea pig ileal strips (setting [2]) was found to be 13%; in the assay with guinea pig ileal strips (setting [3]), 81%. Moreover, the 50% inhibitory concentration (IC50) is more than 75 µM with guinea pig ileal strips (setting [4]) and 27 µM in the assay on guinea pig ileal strips (setting [5]).
In the case of `CCCCCCCc1ccc(C(=O)c2cccc(C(=O)O)c2)cc1` [Example 16, 3-(4-n-heptylbenzoyl)benzoic acid], in assay [1], the inhibition at 100 µM was found to be 75%. Also, the IC50 in assay [1] worked out at 4 µM; with guinea pig ileal strips (setting [4]), 57 µM; in the assay with guinea pig ileal strips (setting [5]), 12 µM. In addition, the inhibition at 75 µM in the assay on guinea pig ileal strips (setting [2]) was found to be 63%; in the assay with guinea pig ileal strips (setting [3]), 86%.
On to `CCCCCCCc1ccc(C(=O)Cc2ccccc2C(=O)O)cc1` [Example 17, 2-(4-n-Heptylphenacyl)benzoic acid], for which, in assay [1], the inhibition at 100 µM was determined as 80%. The inhibition at 75 µM with guinea pig ileal strips (setting [2]) came out at 100%; in the assay with guinea pig ileal strips (setting [3]), 90%. Also, the half-inhibitory concentration (IC50) in the assay on guinea pig ileal strips (setting [4]) is 33 µM; in the assay with guinea pig ileal strips (setting [5]), 10 µM.
The like results for `CCCCCCCc1ccc(C(=O)Cc2cccc(C(=O)O)c2)cc1` [Example 18, 3-(4-n-Heptylphenacyl)benzoic acid] were, in that order, 73%, 70%, 97%, 51 µM and 10 µM.
For `CCCCOc1ccc(C(=O)c2cccc(C(=O)O)c2)c(O)c1` [Example 26, 3-(4-Butoxy-2-hydroxybenzoyl)benzoic acid], the inhibition at 75 µM in the assay on guinea pig ileal strips (setting [2]) was found to be 59%; in the assay on guinea pig ileal strips (setting [3]), 85%.
The corresponding values for `CCCCOc1cc(OC)ccc1C(=O)c1cccc(C(=O)O)c1` [Example 28, 3-(2-Butoxy-4-methoxybenzoyl)benzoic acid] are 35% and 61%.
For `CCCCCCOc1cc(C)ccc1C(=O)c1cccc(C(=O)O)c1` [Example 31, 3-(2-n-Hexyloxy-4-methylbenzoyl)-benzoic acid], the inhibition at 75 µM is 59% with guinea pig ileal strips (setting [2]) and 81% in the assay on guinea pig ileal strips (setting [3]). The IC50 in the assay on guinea pig ileal strips (setting [4]) was more than 75 µM; with guinea pig ileal strips (setting [5]), 44 µM.
The corresponding values for `CCCCCCCc1ccc(C(=O)c2cccc(-c3nn[nH]n3)c2)cc1` [Example 36, 5-3-(4-n-Heptylbenzoyl)phenyl!tetrazole] are 14%, 85%, more than 75 µM and 7 µM.
On to `CCCc1c(OCC(O)COc2ccc3c(=O)cc(C(=O)O)oc3c2CCC)ccc(C(C)=O)c1O` (centres unmarked) [FPL-55712, reference compound], for which the inhibition at 1.9 µM in the assay with guinea pig ileal strips (1.9 μM, positive control, added at peak of contraction, read-out: Postchallenge inhibition by the reference standard) fell in the range of 70 to 90%.
